Assay results as given in patent US9353082B2, “Pharmaceutical compounds” (BIAL—PORTELA & CA, S.A., priority 2008, dated 2016).

Key:
FAAH [1] = molecular target: T1, FAAH (Rattus norvegicus, UniProt P97612); test: In vitro FAAH activity in rat brain membranes, 3H-AEA substrate, % of control; type: biochemical, Wistar rats; settings: low value = strong inhibitor; for In Vitro FAAH activity, 100 nM: 100 nM test compound
T1 construct: Frozen brains (without cerebellum) from Wistar rats were used; from tissue; host or cells: Wistar rat brain (without cerebellum), washed membrane pellets
T1 sequence (P97612 1-579): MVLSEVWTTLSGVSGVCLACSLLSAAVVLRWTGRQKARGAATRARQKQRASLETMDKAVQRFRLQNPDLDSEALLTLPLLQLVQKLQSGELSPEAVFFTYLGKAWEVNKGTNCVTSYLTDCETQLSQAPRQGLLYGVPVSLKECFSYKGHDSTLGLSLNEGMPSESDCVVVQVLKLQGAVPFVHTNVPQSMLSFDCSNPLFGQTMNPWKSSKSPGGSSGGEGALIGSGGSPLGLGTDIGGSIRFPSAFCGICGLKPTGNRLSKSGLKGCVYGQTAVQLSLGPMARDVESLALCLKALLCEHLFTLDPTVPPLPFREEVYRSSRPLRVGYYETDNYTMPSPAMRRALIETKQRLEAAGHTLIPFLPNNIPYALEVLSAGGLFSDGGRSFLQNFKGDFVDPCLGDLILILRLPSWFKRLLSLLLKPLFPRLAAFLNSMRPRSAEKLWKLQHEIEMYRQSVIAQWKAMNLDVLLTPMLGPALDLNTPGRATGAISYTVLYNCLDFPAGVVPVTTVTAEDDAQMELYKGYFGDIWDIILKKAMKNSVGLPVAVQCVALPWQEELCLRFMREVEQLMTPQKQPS
In short: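 Wistar rat brain membranes (5 μg protein) preincubated 15 min at 37 °C with compound at 10 μM or 0.1 μM (0.1% DMSO), then 2 μM AEA including 3H-AEA with 0.1% BSA, Tris pH 7.6, 10 min. 3H-ethanolamine counted after charcoal stop; % of no-compound control after blank subtraction.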

FAAH [2] = molecular target: T2, FAAH (Mus musculus, UniProt O08914); test: In vivo FAAH inhibition after oral dosing, remaining activity in liver homogenate (LVh, peripheral tissue); parameters: species or system NMRI mice; settings: liver homogenate
T2 construct: A fragment of liver, left lung lobe and brain without cerebellum were removed; from tissue; host or cells: male NMRI mice; brain (without cerebellum) and liver homogenates
T2 sequence (O08914 1-579): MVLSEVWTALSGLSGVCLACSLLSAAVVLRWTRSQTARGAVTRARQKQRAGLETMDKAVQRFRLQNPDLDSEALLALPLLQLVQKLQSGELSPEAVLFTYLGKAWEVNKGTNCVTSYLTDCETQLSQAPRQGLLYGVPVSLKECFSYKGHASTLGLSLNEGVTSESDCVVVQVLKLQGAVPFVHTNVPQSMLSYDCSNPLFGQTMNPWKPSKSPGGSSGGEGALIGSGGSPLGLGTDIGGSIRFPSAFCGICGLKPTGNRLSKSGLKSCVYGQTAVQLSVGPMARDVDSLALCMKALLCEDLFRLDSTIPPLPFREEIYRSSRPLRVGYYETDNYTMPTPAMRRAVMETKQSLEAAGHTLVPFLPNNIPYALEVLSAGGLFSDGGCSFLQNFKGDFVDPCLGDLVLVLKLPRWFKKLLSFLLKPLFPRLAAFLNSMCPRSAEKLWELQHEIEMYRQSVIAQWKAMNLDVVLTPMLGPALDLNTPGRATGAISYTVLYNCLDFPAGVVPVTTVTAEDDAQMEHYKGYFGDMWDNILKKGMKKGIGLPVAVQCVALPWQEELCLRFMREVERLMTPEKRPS
In short: (§1)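 Male NMRI mice, fasted overnight, got 30 or 3 mg/kg compound orally (0.5% CMC suspension or water) and were compared with vehicle controls. Brain (no cerebellum) and liver homogenates were incubated with 2 μM AEA plus 5 nM 3H-AEA at 37 °C, 10 min for brain and 7 min for liver. Remaining FAAH activity is % of vehicle after blank subtraction.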

FAAH [3] = molecular target: T2, FAAH; test: In vivo FAAH inhibition after oral dosing, remaining activity in brain homogenate (BRh, central nervous tissue); parameters: species or system NMRI mice; settings: brain homogenate
In short: as §1

| SMILES | In Vitro FAAH activity, 100 nM (FAAH [1]) | In Vivo LVh 30 mg/kg 1 h, remaining FAAH activity (FAAH [2]) | In Vivo BRh 30 mg/kg 1 h, remaining FAAH activity (FAAH [3]) | In Vivo LVh 3 mg/kg 8 h, remaining FAAH activity (FAAH [2]) | In Vivo BRh 3 mg/kg 8 h, remaining FAAH activity (FAAH [3]) | In Vitro FAAH activity, 10 uM (FAAH [1]; 10 uM test compound) |
| --- | --- | --- | --- | --- | --- | --- |
| O=C(N1CCN(Cc2ccc3c(c2)OCO3)CC1)n1nnc2ccccc21.O=C(O)C(=O)O [Compound 48, (1H-benzo[d][1,2,3]triazol-1-yl)(4-(benzo[d][1,3]dioxol-5-ylmethyl)piperazin-1-yl)methanone oxalate] | 0.1 % of control | 20.1 % of control | 21.8 % of control | – | – | – |
| O=C(N1CCN(c2ccccn2)CC1)n1nnc2ccccc21 [Compound 49, (1H-benzo[d][1,2,3]triazol-1-yl)(4-(pyridin-2-yl)piperazin-1-yl)methanone] | 0.1 % of control | 14.9 % of control | 16.9 % of control | – | – | – |
| O=C(N1CCc2ccccc2C1)n1nnc2ccccc21 [Compound 50, (1H-benzo[d][1,2,3]triazol-1-yl)(3,4-dihydroisoquinolin-2(1H)-yl)methanone] | 0 % of control | 7.8 % of control | 32.6 % of control | – | – | – |
| O=C(N1CCCc2ccccc21)n1cnc(-c2cccc(O)c2)c1 [Compound 51, (3,4-dihydroquinolin-1(2H)-yl)(4-(3-hydroxyphenyl)-1H-imidazol-1-yl)methanone] | 100.8 % of control | – | – | 132.3 % of control | 130.4 % of control | – |
| CN(Cc1ccccc1)C(=O)n1nnc2ccccc21 [Compound 53, N-benzyl-N-methyl-1H-benzo[d][1,2,3]triazole-1-carboxamide] | 0 % of control | 6.3 % of control | 1.4 % of control | – | – | – |
| O=C(N1CCC2(CC1)OCCO2)n1nnc2ccccc21 [Compound 55, 1H-benzo[d][1,2,3]triazol-1-yl(1,4-dioxa-8-azaspiro[4.5]dec-8-yl)methanone] | 0.2 % of control | 2.5 % of control | 2.2 % of control | 37.8 % of control | 42.6 % of control | – |
| CN(C(=O)n1nnc2ccccc21)C1CCCCC1 [Compound 58, N-cyclohexyl-N-methyl-1H-benzo[d][1,2,3]triazole-1-carboxamide] | 1 % of control | 0.9 % of control | 0.3 % of control | 0.3 % of control | 0.5 % of control | – |
| O=C(NCc1ccccc1)n1nnc2ccccc21 [Compound 61, N-benzyl-1H-benzo[d][1,2,3]triazole-1-carboxamide] | 2.2 % of control | 83.9 % of control | 87.5 % of control | – | – | – |
| CN(C(=O)n1nnc2ccccc21)c1ccc(Cl)cc1 [Compound 63, N-(4-chlorophenyl)-N-methyl-1H-benzo[d][1,2,3]triazole-1-carboxamide] | 12.6 % of control | 49.7 % of control | 57 % of control | – | – | – |
| CN(C(=O)n1nnc2ccccc21)c1ccc(F)cc1F [Compound 70, N-(2,4-difluorophenyl)-N-methyl-1H-benzo[d][1,2,3]triazole-1-carboxamide] | 1.9 % of control | 42.5 % of control | 52 % of control | – | – | – |
| CC1(C)COCN1C(=O)n1nnc2ccccc21 [Compound 71, (1H-benzo[d][1,2,3]triazol-1-yl)(4,4-dimethyloxazolidin-3-yl)methanone] | 2.3 % of control | 2.2 % of control | 0.3 % of control | 2.5 % of control | 1.8 % of control | 0.1 % of control |
| CCCCN(C)C(=O)n1nnc2ccccc21 [Compound 75, N-butyl-N-methyl-1H-benzo[d][1,2,3]triazole-1-carboxamide] | 0 % of control | 2.7 % of control | 0.4 % of control | – | – | – |
| O=C(N1CCC(Cc2ccccc2)CC1)n1cnc(-c2ccc(F)cc2F)n1 [Compound 79, (4-benzylpiperidin-1-yl)(3-(2,4-difluorophenyl)-1H-1,2,4-triazol-1-yl)methanone] | 0.8 % of control | 9.8 % of control | 10.3 % of control | 45.2 % of control | 70 % of control | – |
| O=C(NC1CCCCC1)n1nnc2ccccc21 [Compound 87, N-cyclohexyl-1H-benzo[d][1,2,3]triazole-1-carboxamide] | 0 % of control | – | – | 4 % of control | 3.4 % of control | – |
| Cc1ccc(OC2CCN(C(=O)n3nnc4ccccc43)CC2)cc1 [Compound 99, (1H-benzo[d][1,2,3]triazol-1-yl)(4-(p-tolyloxy)piperidin-1-yl)methanone] | 0.2 % of control | – | – | 71.4 % of control | 99.1 % of control | – |
| O=C(N1CCC(CCc2ccccc2)CC1)n1nnc2ccccc21 [Compound 100, (1H-benzo[d][1,2,3]triazol-1-yl)(4-phenethylpiperidin-1-yl)methanone] | 0.2 % of control | – | – | 40.5 % of control | 68.1 % of control | – |
| O=C(N1CCC(CCCc2ccccc2)CC1)n1nnc2ccccc21 [Compound 110, (1H-benzo[d][1,2,3]triazol-1-yl)(4-(3-phenylpropyl)piperidin-1-yl)methanone] | 0.1 % of control | – | – | 10.2 % of control | 51.7 % of control | – |
| CN(C(=O)n1cnc(-c2ccc(C(N)=O)cc2)c1)c1ccccc1 [Compound 113, 4-(4-carbamoylphenyl)-N-methyl-N-phenyl-1H-imidazole-1-carboxamide] | 90.3 % of control | – | – | 32.3 % of control | 84.1 % of control | – |
| O=C(N1CCC(c2ccncc2)CC1)n1nnc2ccccc21 [Compound 114, (1H-benzo[d][1,2,3]triazol-1-yl)(4-(pyridin-4-yl)piperidin-1-yl)methanone] | 0.1 % of control | – | – | 109.9 % of control | 102.9 % of control | – |
| O=C(N1CCC(c2nc(-c3cccnc3)no2)CC1)n1nnc2ccccc21 [Compound 116, (1H-benzo[d][1,2,3]triazol-1-yl)(4-(3-(pyridin-3-yl)-1,2,4-oxadiazol-5-yl)piperidin-1-yl)methanone] | 0.5 % of control | – | – | 113.2 % of control | 126.2 % of control | – |
